For series [1], the target named is pig kidney FBPase (Sus scrofa, UniProt P00636). Description: FBPase activity, enzyme-coupled spectrophotometric assay. In kind it is biochemical. The settings on record: for inhibition of pig kidney FBPase relative to AMP: compared with AMP, the natural allosteric inhibitor; for IC50: pig kidney FBPase. On the procedure: The test were performed using an enzyme-coupled assay^17 with AMP as a control.
(§1) FBPase activity was measured spectrophotometrically by employing the coupling enzymes phosphoglucose isomerase and glucose-6-phosphate dehydrogenase.^17 The reduction of NADP+ to NADPH was monitored directly at 340 nm. Specifically, buffer (0.2 M Tris, 4 mM MgCl2, 4 mM (NH4)2SO4, 0.1 EDTA, pH 7.5), 0.2 mM of NADP+, 1.4 units of phosphoglucose isomerase and 0.5 units of glucose-6-phosphate dehydrogenase, 0-300M of inhibitor and 9 ng of FBPase, were mixed in a cuvette and equilibrated at 30° C. 70M of FBP was then added to initiate the reaction. Absdata were collected as a function of time using a JASCO V-630 spectrophotometer.
(§2) After a lag phase, due to coupling, a straight line was fitted to the progress curve and the slope value was recorded asAbs340 per min. The amount of NADPH produced per minute was calculated using the 340 nm millimolar extinction coefficient of 6.22. At each inhibitor concentration, reactions were performed in duplicate. Inhibition curves were obtained for each compound by plotting the relative activity versus inhibitor concentration.

For series [2], the target named is human liver FBPase (Homo sapiens (Human), UniProt P09467). Described as above. The class given is biochemical. To be noted: for inhibition of human liver FBPase relative to AMP: compared with AMP, the natural allosteric inhibitor; for IC50: human liver FBPase. On the procedure:
Compounds 3 and 4 (see Scheme 1) were synthesized and tested to determine if they could inhibit either pig kidney or human liver FBPase. The test were performed using an enzyme-coupled assay^17 with AMP as a control.
as §1, §2

The test system of series [3] is allosteric site of FBPase. Description: TNP-AMP fluorescence competition experiment. In kind it is binding. The settings on record: TNP-AMP at 0.5 times its Kd. Here is the method:
Fluorescence data were collected using a JASCO FP-6300 spectro-fluorometer. Excitation and emission wavelengths of 410 and 535 nm respectively were used for TNPAMP (Molecular Probes). 0.15 mg of the respective FBPases, 0.08 mM MgCl and 20M fructose 1, 6-2 bisphosphate in 50 mM Tris-acetate buffer, pH 7.5, was added to a 2 mL cuvette and stirred. 3.5 M of TNP-AMP was added to the cuvette and the emission data was obtained Microliter volumes of 3 were subsequently added to the cuvette and resultant emission data was obtained after each addition. The final concentration of 3 in the enzyme solution was 6M.

Series [4] in a line: Solubility (remark in competition experiment). The class given is physicochemical.
Series [5] relates to plasma glucose levels. The settings on record: compared with Metformin (250 mg/kg); cited from earlier work.
[6] abbreviates: read-out: FBPase, IC50 Human Liver.

Each structure is given as a SMILES string. Values joined by “and” are separate entries in the source; they are usually repeats but may differ in a detail not shown here. Equal entries are not always repeated. Where two headings read alike, the source gives them in different places.

We go through five molecules from patent US9273021B2, “Dibenzofuran derivatives as inhibitors of fructose 1,6-bisphosphatase and methods of use thereof” (TRUSTEES OF BOSTON COLLEGE, priority 2009, dated 2016).

Sequence of pig kidney FBPase (P00636 2-338 limits assumed): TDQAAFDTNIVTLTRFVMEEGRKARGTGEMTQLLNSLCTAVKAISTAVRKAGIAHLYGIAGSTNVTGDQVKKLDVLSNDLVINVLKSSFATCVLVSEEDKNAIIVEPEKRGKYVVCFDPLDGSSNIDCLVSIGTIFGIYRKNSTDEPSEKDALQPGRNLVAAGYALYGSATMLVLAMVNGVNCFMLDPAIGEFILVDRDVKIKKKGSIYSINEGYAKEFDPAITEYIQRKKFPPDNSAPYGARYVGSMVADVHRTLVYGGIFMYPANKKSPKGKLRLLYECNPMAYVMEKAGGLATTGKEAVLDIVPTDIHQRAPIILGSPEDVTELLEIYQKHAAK
Sequence of human liver FBPase (P09467 2-338): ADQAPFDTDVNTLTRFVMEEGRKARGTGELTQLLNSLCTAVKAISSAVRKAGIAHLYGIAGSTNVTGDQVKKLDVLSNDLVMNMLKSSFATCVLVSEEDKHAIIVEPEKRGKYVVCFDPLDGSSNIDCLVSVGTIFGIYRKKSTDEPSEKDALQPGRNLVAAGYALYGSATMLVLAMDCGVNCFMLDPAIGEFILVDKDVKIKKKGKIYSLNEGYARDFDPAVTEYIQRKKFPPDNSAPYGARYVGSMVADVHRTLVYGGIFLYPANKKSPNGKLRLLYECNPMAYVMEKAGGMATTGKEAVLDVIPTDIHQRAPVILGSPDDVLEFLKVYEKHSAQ

Take `CC(C)CC(=O)c1c(O)cc2oc3c(C(=O)CC(C)C)c(O)cc(O)c3c2c1O` [Compound 3, 1,1′-(1,3,7,9-tetrahydroxydibenzofuran-2,6-diyl)bis(3-methylbutan-1-one)]: the “inhibition of pig kidney FBPase relative to AMP” value in series [1] is given as “comparable to that of AMP”. The half-inhibitory concentration (IC50) turned out to be 1.5 ± 0.1 µM in series [1] and 8.1 µM in series [2] (setting [6]). Further, the “inhibition of human liver FBPase relative to AMP” value in series [2] was “comparable to that of AMP”. In addition, in series [3], the “TNP-AMP fluorescence on addition of increasing concentrations of compound” value is reported as “substantial diminution of the TNP-AMP fluorescence”. Moreover, the solubility result in series [4] is “relatively low solubility”.

On to `CCC(C)C(=O)c1c(O)cc2oc3c(C(=O)C(C)CC)c(O)cc(O)c3c2c1O` (stereo not shown) [Compound 4, 1,1′-(1,3,7,9-tetrahydroxydibenzofuran-2,6-diyl)bis(2-methylbutan-1-one)], for which, in series [1], the “inhibition of pig kidney FBPase relative to AMP” value is “comparable to that of AMP” and the half-inhibitory concentration (IC50) was found to be 5 µM. The “inhibition of human liver FBPase relative to AMP” value in series [2] was “comparable to that of AMP”. The IC50 in series [2] (setting [6]) was 6 µM. Moreover, the “TNP-AMP fluorescence on addition of increasing concentrations of compound” value in series [3] is “substantial diminution of the TNP-AMP fluorescence”. In series [4], the solubility entry is “relatively low solubility”.

As for `CC(=O)C1=C(O)C=C2Oc3c(C(C)=O)c(O)c(C)c(O)c3[C@@]2(C)C1=O` [Compound 2, (+)-usnic acid, reference compound], the half-maximal inhibitory concentration (IC50) in series [2] (read-out: IC50 human liver FBPase) stood at 370 µM.

Regarding `Nc1ncnc2c1ncn2[C@@H]1O[C@H](COP(=O)(O)O)[C@@H](O)[C@H]1O` [AMP, reference compound], the IC50 in series [1] was 1.3 µM; in series [2] (setting [6]), 9.7 µM and 9.8 µM.

Consider `C=C(C)C(O)Cc1c(O)c(C(=O)C(C)CC)c(O)c2c1oc1c(C(=O)C(C)CC)c(O)c(CC=C(C)C)c(O)c12` (stereo not shown) [Compound 1, achyrofuran], for which, in series [5], the “lowering of plasma glucose levels” value was “better than that of Metformin”.

The term IC50 denotes the concentration that gives 50% inhibition.
